Source: patent US20220184008A1, “MODULATORS OF INTRACELLULAR CHLORIDE CONCENTRATION” (FONDAZIONE ISTITUTO ITALIANO DI TECNOLOGIA, priority 2019, published 2022)
Like-named read-outs stand apart in the source and are kept apart here.

Target: T1, NKCC1 (Homo sapiens, UniProt P55011)
T1 construct: expressed in transfected cells; host or cells: HEK293
T1 sequence (P55011 1-1212): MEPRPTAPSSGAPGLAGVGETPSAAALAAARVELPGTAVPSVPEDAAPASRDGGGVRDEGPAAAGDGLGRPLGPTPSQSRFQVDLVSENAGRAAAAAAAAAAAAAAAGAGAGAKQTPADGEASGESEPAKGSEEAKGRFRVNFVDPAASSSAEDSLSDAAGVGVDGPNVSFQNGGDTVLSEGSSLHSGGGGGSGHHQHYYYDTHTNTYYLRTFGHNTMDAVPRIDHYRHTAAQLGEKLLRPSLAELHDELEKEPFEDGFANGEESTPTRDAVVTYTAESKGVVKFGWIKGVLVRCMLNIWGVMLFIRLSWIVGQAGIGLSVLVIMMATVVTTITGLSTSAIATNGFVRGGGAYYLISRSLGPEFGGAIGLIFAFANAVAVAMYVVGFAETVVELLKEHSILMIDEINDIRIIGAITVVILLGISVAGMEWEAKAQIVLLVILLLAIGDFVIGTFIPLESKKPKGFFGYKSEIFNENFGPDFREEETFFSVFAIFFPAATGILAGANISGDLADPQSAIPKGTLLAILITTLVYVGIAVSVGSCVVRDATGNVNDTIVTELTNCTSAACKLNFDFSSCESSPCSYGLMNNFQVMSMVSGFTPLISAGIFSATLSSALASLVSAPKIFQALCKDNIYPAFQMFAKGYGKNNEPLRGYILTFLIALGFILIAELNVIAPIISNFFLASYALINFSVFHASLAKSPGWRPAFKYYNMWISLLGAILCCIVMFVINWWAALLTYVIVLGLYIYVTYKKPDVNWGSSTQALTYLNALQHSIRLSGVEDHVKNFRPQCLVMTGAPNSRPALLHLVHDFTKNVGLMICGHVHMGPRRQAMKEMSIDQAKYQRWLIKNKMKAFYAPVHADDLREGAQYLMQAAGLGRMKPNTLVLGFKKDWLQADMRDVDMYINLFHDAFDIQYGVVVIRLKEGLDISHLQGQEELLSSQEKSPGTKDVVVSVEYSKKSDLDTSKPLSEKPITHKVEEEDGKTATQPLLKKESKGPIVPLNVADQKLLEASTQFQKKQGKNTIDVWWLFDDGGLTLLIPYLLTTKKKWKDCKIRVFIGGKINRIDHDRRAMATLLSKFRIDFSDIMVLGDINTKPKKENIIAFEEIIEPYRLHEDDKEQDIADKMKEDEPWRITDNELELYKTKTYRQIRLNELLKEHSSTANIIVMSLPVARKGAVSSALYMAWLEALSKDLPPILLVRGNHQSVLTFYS
Test: Chloride kinetic assay (Cl-sensitive YFP) in NKCC1-transfected HEK293 cells
Assay type: cell-based
Conditions: for inhibition at 10 µM / NKCC1 Inhibition % 10 μM HEK Chloride YFP assay: NKCC1-transfected HEK293; for inhibition at 10 µM: read-out: NKCC1 Inhibition % 10 μM HEK Chloride YFP assay; for effect on decrease in fluorescence upon NaCl application in NKCC1-transfected cells: pre-incubation at 10 μM and 100 μM
Procedure: FIG. 1: In vitro testing of the NKCC1 inhibitors in the chloride kinetic assay a) Example traces obtained in the chloride kinetic assay on HEK cells transfected with the YFP (mock) or with YFP and NKCC1. The arrow indicates the addition of NaCl (final concentration 74 mM) used to initiate the flux assay. b) Quantification of the effect of bumetanide (10 μM and 100 μM) or furosemide (10 μM and 100 μM) in the chloride kinetic assay on mock or NKCC1-transfected HEK293 cells. Data represents mean±sem from 5 independent experiments. c) Quantification of the effect of bumetanide and furosemide and 2 selected compounds (3.8, 3.17) in the chloride kinetic assay on NKCC1-transfected HEK293 cells. Data represents mean±sem from 5 independent experiments, and they are represented as % of the controls. *P<0.05, **P<0.01, ***P<0.001 Kruskal-Wallis Anova (Dunn's Post hoc Test); ###P<0.001 two-tailed unpaired Student t-test.
To screen in vitro the compounds efficiency in blocking NKCC1, a functional NKCC1 transporter assay was performed by measuring variation of Cl^− ion concentration in the cell through a Cl^− sensitive membrane-tagged yellow fluorescent protein (mbYFPQS, Addgene). mbYFPQS fluorescence is inversely dependent on the concentration of Cl^− inside the cell thus allowing an indirect estimation of the Cl^− transporter activity. In particular, HEK293 cells were transfected with NKCC1 or mock construct (control) together with the Cl^− sensitive YFP. After 2 DIV, the cells were treated with bumetanide and furosemide (as positive controls) or with each of the tested compounds of the invention in a Cl^− free medium. After 30 min, the inhibitory activity of the compounds was tested by monitoring fluorescence upon application of NaCl (FIG. 1a). Transported by NKCC1, Cl binds the YFP, leading to a fluorescence decrease. […] With the Cl kinetic assay, the NKCC1 inhibitory activity of the selected compounds was tested (FIG. 1c).

Row | Compound | inhibition at 10 µM (Table 1) [%] | NKCC1 Inhibition % 10 μM HEK Chloride YFP assay (Table 1) | NKCC1 Inhibition % 10 μM HEK Chloride YFP assay (Table 2) | also measured
1 | CCCCCCNc1ccc([N+](=O)[O-])cc1S(N)(=O)=O [Compound 1.7, 2-(hexylamino)-5-nitro-benzenesulfonamide] | 25 |  |  | 
2 | CN(C)S(=O)(=O)c1cc(C(=O)O)ccc1NCCCCCCCC(F)(F)F [Compound 3.17, 3-(dimethylsulfamoyl)-4-(8,8,8-trifluorooctylamino) benzoic acid] | 37 |  |  | NKCC1 inhibition compared with bumetanide and furosemide (100 μM): better than bumetanide and furosemide
3 | CCCCCCNc1ccc(C(=O)O)cc1S(N)(=O)=O [Compound 2.7, 4-(hexylamino)-3-sulfamoyl-benzoic acid] | 4 |  |  | 
4 | CCCCNc1ccc([N+](=O)[O-])cc1S(N)(=O)=O [Compound 1.6, 2-(butylamino)-5-nitro-benzenesulfonamide] | 11 |  |  | 
5 | CCCCNc1cc(Cl)c(C(=O)O)cc1S(N)(=O)=O [Compound 2.2, 4-(butylamino)-2-chloro-5-sulfamoyl-benzoic acid] | 36 |  |  | 
6 | CCCCNc1cc(C(=O)O)cc(S(N)(=O)=O)c1Oc1ccccc1 [Bumetanide, reference compound] | 54 |  |  | effect on decrease in fluorescence upon NaCl application in NKCC1-transfected cells: significantly reduced
7 | CC(C)(C)CCNc1ccc(C(=O)O)cc1S(N)(=O)=O [Compound 2.9, 4-(3,3-dimethylbutylamino)-3-sulfamoyl-benzoic acid] | 1 |  |  | 
8 | CCCCCCCCNc1ccc(C(=O)O)cc1S(=O)(=O)NC [Compound 3.8, 3-(methylsulfamoyl)-4-(octylamino)benzoic acid] | 16 |  |  | 
9 | CCCCCCCCNc1ccc(C(=O)O)cc1S(=O)(=O)N(C)C [Compound 3.13, 3-(dimethylsulfamoyl)-4-(octylamino)benzoic acid] |  | Inactive | Inactive | 
10 | CC(C)(C)CCNc1ccc([N+](=O)[O-])cc1S(N)(=O)=O [Compound 1.9, 2-(3,3-dimethylbutylamino)-5-nitro-benzenesulfonamide] | 5 |  |  | 
11 | CCCCCCCCNc1ccc([N+](=O)[O-])cc1S(=O)(=O)N(C)C [Compound 1.16, N,N-dimethyl-5-nitro-2-(octylamino)benzenesulfonamide] |  | Inactive | Inactive | 
12 | CCCCCCNc1cc(Cl)c(C(=O)O)cc1S(N)(=O)=O [Compound 2.3, 2-chloro-4-(hexylamino)-5-sulfamoyl-benzoic acid] | 10 |  |  | 
13 | CCCCCCNc1ccc(C(=O)O)cc1S(=O)(=O)NC [Compound 3.7, 4-(hexylamino)-3-(methylsulfamoyl)benzoic acid] |  | Inactive | Inactive | 
14 | CCCCNc1ccc([N+](=O)[O-])cc1S(=O)(=O)NC [Compound 1.10, 2-(butylamino)-N-methyl-5-nitro-benzenesulfonamide] |  | Inactive | Inactive | 
15 | Furosemide [reference compound] |  | Inactive | Inactive | effect on decrease in fluorescence upon NaCl application in NKCC1-transfected cells: effective at 100 μM only
16 | CCCCCCNc1ccc(C(=O)O)cc1S(=O)(=O)N(C)C [Compound 3.12, 3-(dimethylsulfamoyl)-4-(hexylamino)benzoic acid] | 8 |  |  | 

Row | Compound | inhibition at 10 µM (Table 1) [%] | NKCC1 Inhibition % 10 μM HEK Chloride YFP assay (Table 1) | NKCC1 Inhibition % 10 μM HEK Chloride YFP assay (Table 2) | also measured
17 | CCCCNc1ccc([N+](=O)[O-])cc1S(=O)(=O)N(C)C [Compound 1.14, 2-(butylamino)-N,N-dimethyl-5-nitro-benzenesulfonamide] |  | Inactive | Inactive | 
18 | CCCCCCNc1ccc([N+](=O)[O-])cc1S(=O)(=O)NC [Compound 1.11, 2-(hexylamino)-N-methyl-5-nitro-benzenesulfonamide] |  |  |  | inhibition at 10 µM (Table 2): 3.4%
19 | CNS(=O)(=O)c1cc([N+](=O)[O-])ccc1NCCC(C)(C)C [Compound 1.13, 2-(3,3-dimethylbutylamino)-N-methyl-5-nitro-benzenesulfonamide] | 17 |  |  | 
20 | CCCCCCCCNc1ccc([N+](=O)[O-])cc1S(N)(=O)=O [Compound 1.8, 5-nitro-2-(octylamino)benzenesulfonamide] | 12 |  |  | 
21 | CCCCCCCCNc1cc(Cl)c(C(=O)O)cc1S(N)(=O)=O [Compound 2.4, 2-chloro-4-(octylamino)-5-sulfamoyl-benzoic acid] | 14 |  |  | 
22 | CCCCNc1ccc(C(=O)O)cc1S(=O)(=O)N(C)C [Compound 3.11, 4-(butylamino)-3-(dimethylsulfamoyl)benzoic acid] | 9 |  |  | 
23 | CCCCCCNc1ccc([N+](=O)[O-])cc1S(=O)(=O)N(C)C [Compound 1.15, 2-(hexylamino)-N,N-dimethyl-5-nitro-benzenesulfonamide] | 16 |  |  | 
24 | CN(C)S(=O)(=O)c1cc([N+](=O)[O-])ccc1NCCC(C)(C)C [Compound 1.17, 2-(3,3-dimethylbutylamino)-N,N-dimethyl-5-nitro-benzenesulfonamide] |  | Inactive | Inactive | 
25 | CCCCNc1ccc(C(=O)O)cc1S(=O)(=O)NC [Compound 3.6, 4-(butylamino)-3-(methylsulfamoyl)benzoic acid] | 8 |  |  | 
26 | CNS(=O)(=O)c1cc(C(=O)O)ccc1NCCC(C)(C)C [Compound 3.9, 4-(3,3-dimethylbutylamino)-3-(methylsulfamoyl)benzoic acid] |  | Inactive | Inactive | 
27 | CCCCCCCCNc1ccc(C(=O)O)cc1S(N)(=O)=O [Compound 2.8, 4-(octylamino)-3-sulfamoyl-benzoic acid] | 5 |  |  | 
28 | CCCCCCCCNc1ccc([N+](=O)[O-])cc1S(=O)(=O)NC [Compound 1.12, N-methyl-5-nitro-2-(octylamino)benzenesulfonamide] |  | Inactive | Inactive | 
29 | CN(C)S(=O)(=O)c1cc(C(=O)O)ccc1NCCC(C)(C)C [Compound 3.14, 4-(3,3-dimethylbutylamino)-3-(dimethylsulfamoyl)benzoic acid] |  | Inactive | Inactive | 
30 | CCCCNc1ccc(C(=O)O)cc1S(N)(=O)=O [Compound 2.6, 4-(butylamino)-3-sulfamoyl-benzoic acid] |  | Inactive | Inactive | 
31 | CC(C)(C)CCNc1cc(Cl)c(C(=O)O)cc1S(N)(=O)=O [Compound 2.5, 2-chloro-4-(3,3-dimethylbutylamino)-5-sulfamoyl-benzoic acid] |  | Inactive | Inactive | 
